In general, IC50 refers to the midpoint of a concentration-inhibition curve. As a reminder, the inhibition is how much of the control response was suppressed.

Molecules are shown by their SMILES.

For series [1], the target named is T1, Hematopoietic prostaglandin D synthase (Homo sapiens, UniProt O60760). Briefly: Inhibition of HPGDS.
Series [2] can be described thus: (§1) Metabolic stability in human liver microsomes assessed as compound remaining after 30 mins. In kind it is ADME, Microsome. As to conditions: liver microsomes, read-out: Stability. (In general: Microsomes from liver hold many membrane-bound enzymes, among them those of drug oxidation.)
The target of series [3] is T1, Hematopoietic prostaglandin D synthase. Briefly: Inhibition of human recombinant HPGDS using PGH2 as substrate assessed as production of PGD2 preincubated for 10 mins prior substrate addition measured after 42 secs by TBA-based fluorescence assay.
The subject of series [4] is Liver microsomes. Described as §1. In kind it is ADME, Microsome. As to conditions: microsomes, 0.5 h.
Series [5] addresses ERG (KCNH2 potassium channel) (Homo sapiens, UniProt Q12809). Nature of the series: Displacement of dofetilide from ERG at 10 uM. The settings on record: probe dofetilide.
In series [6] the test system is Liver microsomes. Nature of the series: Half life in human liver microsomes. Type of series: ADME, Microsome.

T1 sequence (O60760 whole entry): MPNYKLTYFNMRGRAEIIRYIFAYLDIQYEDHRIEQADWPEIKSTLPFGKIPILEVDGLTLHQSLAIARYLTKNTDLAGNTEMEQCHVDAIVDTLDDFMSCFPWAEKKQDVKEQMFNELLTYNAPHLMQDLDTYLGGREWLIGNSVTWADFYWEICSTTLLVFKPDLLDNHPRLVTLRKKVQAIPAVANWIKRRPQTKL
Chain of ERG (KCNH2 potassium channel) (Q12809 whole entry): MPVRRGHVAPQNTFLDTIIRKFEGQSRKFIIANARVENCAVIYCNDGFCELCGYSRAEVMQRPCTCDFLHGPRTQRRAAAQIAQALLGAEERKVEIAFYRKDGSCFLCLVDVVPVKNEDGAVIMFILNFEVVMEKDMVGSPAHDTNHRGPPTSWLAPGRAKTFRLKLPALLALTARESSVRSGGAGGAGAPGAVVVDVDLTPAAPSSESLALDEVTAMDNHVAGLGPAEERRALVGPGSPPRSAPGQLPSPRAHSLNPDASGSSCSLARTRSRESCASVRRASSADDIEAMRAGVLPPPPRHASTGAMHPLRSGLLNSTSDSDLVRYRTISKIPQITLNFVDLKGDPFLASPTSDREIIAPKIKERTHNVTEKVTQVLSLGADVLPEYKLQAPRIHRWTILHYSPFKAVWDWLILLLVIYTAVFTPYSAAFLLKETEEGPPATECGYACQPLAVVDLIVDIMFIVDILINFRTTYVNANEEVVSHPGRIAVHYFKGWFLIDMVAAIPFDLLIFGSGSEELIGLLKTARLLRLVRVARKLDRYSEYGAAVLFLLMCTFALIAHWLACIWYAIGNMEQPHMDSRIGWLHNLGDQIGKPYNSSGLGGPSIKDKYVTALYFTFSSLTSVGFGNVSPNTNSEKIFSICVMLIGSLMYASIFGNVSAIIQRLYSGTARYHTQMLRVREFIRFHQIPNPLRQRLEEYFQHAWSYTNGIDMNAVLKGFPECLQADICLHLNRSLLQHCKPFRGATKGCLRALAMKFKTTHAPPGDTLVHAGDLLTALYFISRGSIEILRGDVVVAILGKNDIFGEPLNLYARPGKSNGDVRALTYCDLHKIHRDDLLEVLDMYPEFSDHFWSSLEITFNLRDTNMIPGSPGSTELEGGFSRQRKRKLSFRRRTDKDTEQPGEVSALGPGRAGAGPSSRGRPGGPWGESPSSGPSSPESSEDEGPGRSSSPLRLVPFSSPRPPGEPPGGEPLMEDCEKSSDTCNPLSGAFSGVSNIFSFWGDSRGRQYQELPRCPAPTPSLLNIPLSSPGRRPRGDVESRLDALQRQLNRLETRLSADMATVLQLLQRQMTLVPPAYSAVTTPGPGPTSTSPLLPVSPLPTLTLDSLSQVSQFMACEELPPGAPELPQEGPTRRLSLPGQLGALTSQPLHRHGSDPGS

`Cc1nc(-c2ccccc2)sc1C(=O)Nc1ccc(S(N)(=O)=O)cc1`: in series [1], the 50% inhibitory concentration (IC50) was under 1 nM.
On to `O=C(Nc1ccc(N2CCN(C(=O)N3CCOCC3)CC2)cc1)c1cnc(Oc2ccccc2)nc1`, for which 280 nM corresponded to half-maximal inhibition in series [1] (IC50).
Same read-out and setting: as for `O=C(NC1CCN(CC(F)(F)F)CC1)c1ccc(-c2ccccc2)nc1`, the figure is 0.2 nM.
As to `O=C(NCCN1CCOCC1)c1ccc(-c2c(O)ccc3ccccc23)cc1`, the remaining at 0.5 h in series [2] amounted to 94%. Further, the IC50 in series [3] turned out to be 662 nM.
Regarding `Cc1cc2ccccc2c(-c2ccc(C(=O)NCCN3CCOCC3)cc2)n1`, the remaining at 0.5 h in series [2] was determined as 76%.
`O=C(NCCN1CCOCC1)c1ccc(-c2nccc3ccccc23)cc1`: in the series with Liver microsomes [4], the Stability amounted to 90%. The compound also displayed an inhibition at 10 µM in series [5] of 3%. For the same compound, the t1/2 in the series with Liver microsomes [6] is 1 h.
Regarding `O=C(NCCN1CCOCC1)c1ccc(-c2ccccn2)cc1`, in series [2], the remaining at 0.5 h came out at 20%. In series [3], the half-maximal inhibitory concentration (IC50) came out at 274 nM.
Compound `COc1ccccc1N1CCN(C(=O)c2ccc[nH]2)CC1` came in with an IC50 in series [1] of 6900 nM.
